In patent US7943774B2 (priority 2008, dated 2011) one finds chromatographic logP, pest or weed control and log p data, which are given here for 35 compounds.

One data set can be described thus: log P (pH2.3). The class given is physicochemical. As to conditions: for chromatographic logP: reversed-phase HPLC column (C18).
In another data set the test system is Phytophthora infestans. Nature of the data set: whole plant or invertebrate. The class given is in vivo. As to conditions: in Solanum lycopersicum, 168 h, read-out: efficacy.
The subject of a further data set is Plasmopara viticola. Nature of the data set: Plasmopara test (grapevine)/protective. The class given is in vivo. As to conditions: 144 h, active compound concentration of 100 ppm, young grapevine plants sprayed, then inoculated, evaluation 6 days after inoculation, 0% = control, 100% = no infection, read-out: efficacy. Here is the method:
Plasmopara Test (Grapevine)/Protective
After the spray coating has dried on, the plants are inoculated with an aqueous spore suspension of Plasmopara viticola and then remain in an incubation cabin at about 20° C. and 100% relative atmospheric humidity for 1 day. The plants are then placed in a greenhouse at about 21° C. and an atmospheric humidity of about 90% for 4 days. The plants are then moistened and placed in an incubation cabin for 1 day.
Evaluation is carried out 6 days after the inoculation.

[1] abbreviates: method [b]: LC-MS, acidic range, pH 2.7, 0.1% aqueous formic acid and acetonitrile.
Where [2] appears, read: method [c]: LC-MS, neutral range, pH 7.8, 0.001 molar aqueous ammonium bicarbonate and acetonitrile.
The mark [3] stands for this setting: method [a]: HPLC, acidic range, pH 2.3, 0.1% aqueous phosphoric acid and acetonitrile.
The mark [4] stands for this setting: method [b]: LC-MS, acidic range, pH 2.7, 0.1% aqueous formic acid and acetonitrile, HPLC on reversed-phase C 18.
Where [5] appears, read: method [c]: LC-MS, neutral range, pH 7.8, 0.001 molar aqueous ammonium bicarbonate solution and acetonitrile, HPLC on reversed-phase C 18.

Like-named read-outs stand apart in the source and are kept apart here. A value given as a limit tells only on which side of the number the result lay.

By chromatographic logP is commonly meant lipophilicity estimated from chromatographic retention. A lower chromatographic logP goes with lower lipophilicity.

In the case of `Cc1cc(C(F)(F)F)nn1CC(=S)N1CCC(c2nc(/C=C/c3ccccc3)cs2)CC1` [Example I-93, 2-[5-Methyl-3-(trifluoromethyl)-1H-pyrazol-1-yl]-1-(4-{4-[(E)-2-phenylethenyl]-1,3-thiazol-2-yl}piperidin-1-yl)ethanethione], the chromatographic logP in “log P (pH2.3)” (setting [1]) came out at 4.65. Moreover, the pest or weed control at 500 ppm in the data set on Phytophthora infestans was ≥ 70%. In addition, the pest or weed control at 100 ppm in the data set on Plasmopara viticola was ≥ 70%.

For `Cc1cc(C(F)(F)F)nn1CC(=O)N1CCC(c2nc(/C=C/c3cccc4ccccc34)cs2)CC1` [Example I-27, 2-[5-Methyl-3-(trifluoromethyl)-1H-pyrazol-1-yl]-1-(4-{4-[(E)-2-(naphthalen-1-yl)ethenyl]-1,3-thiazol-2-yl}piperidin-1-yl)ethanone], the chromatographic logP in the data set “log P (pH2.3)” (setting [1]) is 4.63. Also, the pest or weed control at 500 ppm in the data set on Phytophthora infestans is ≥ 70%.

On to `Cc1cc(C(F)(F)F)nn1CC(=O)N1CCC(c2nc(/C=C\c3cccc4ccccc34)cs2)CC1` [Example I-2, 2-[5-Methyl-3-(trifluoromethyl)-1H-pyrazol-1-yl]-1-(4-{4-[(Z)-2-(naphthalen-1-yl)ethenyl]-1,3-thiazol-2-yl}piperidin-1-yl)ethanone], for which the chromatographic logP in the data set “log P (pH2.3)” (setting [1]) was 4.52. Also, the pest or weed control at 500 ppm in the data set on Phytophthora infestans was ≥ 70%.

With `Cc1cc(C(F)(F)F)nn1CC(=O)N1CCC(c2nc(CCc3cccc4ccccc34)cs2)CC1` [Example I-81, 2-[5-Methyl-3-(trifluoromethyl)-1H-pyrazol-1-yl]-1-(4-{4-[2-(naphthalen-1-yl)ethyl]-1,3-thiazol-2-yl}piperidin-1-yl)ethanone], the chromatographic logP in the data set “log P (pH2.3)” (setting [1]) came out at 4.37. Further, the pest or weed control at 500 ppm with Phytophthora infestans was ≥ 70%. Further, the pest or weed control at 100 ppm with Plasmopara viticola was ≥ 70%.

As for `Cc1cc(C(F)(F)F)nn1CC(=O)N1CCC(c2nc(C#Cc3cccc4ccccc34)cs2)CC1` [Example I-50, 2-[5-Methyl-3-(trifluoromethyl)-1H-pyrazol-1-yl]-1-{4-[4-(naphthalen-1-ylethynyl)-1,3-thiazol-2-yl]piperidin-1-yl}ethanone], the results for the chromatographic logP in the data set “log P (pH2.3)” (setting [1]) and in “log P (pH2.3)” (setting [2]) were 4.5 and 4.66, respectively. In the data set on Phytophthora infestans, the pest or weed control at 500 ppm is ≥ 70%. Besides, the pest or weed control at 100 ppm in the data set with Plasmopara viticola was ≥ 70%.

In “log P (pH2.3)” (setting [1]), `Cc1cc(C(F)(F)F)nn1CC(=O)N1CCC(c2nc(C#CCc3ccccc3)cs2)CC1` [Example I-52, 2-[5-Methyl-3-(trifluoromethyl)-1H-pyrazol-1-yl]-1-{4-[4-(3-phenylprop-1-yn-1-yl)-1,3-thiazol-2-yl]piperidin-1-yl}ethanone] came in with a chromatographic logP of 3.88. The pest or weed control at 500 ppm in the data set with Phytophthora infestans is ≥ 70%.

The compound `COc1ccccc1C#Cc1csc(C2CCN(C(=O)Cn3nc(C(F)(F)F)cc3C)CC2)n1` [Example I-103, 1-(4-{4-[(2-Methoxyphenyl)ethynyl]-1,3-thiazol-2-yl}piperidin-1-yl)-2-[5-methyl-3-(trifluoromethyl)-1H-pyrazol-1-yl]ethanone] yielded a chromatographic logP in “log P (pH2.3)” (setting [1]) of 3.67. For the same compound, the pest or weed control at 500 ppm in the data set on Phytophthora infestans was ≥ 70%. Also, the pest or weed control at 100 ppm in the data set on Plasmopara viticola is ≥ 70%.

`Cc1cc(C(F)(F)F)nn1CC(=O)N1CCC(c2nc(C#Cc3cccnc3)cs2)CC1` [Example I-51, 2-[5-Methyl-3-(trifluoromethyl)-1H-pyrazol-1-yl]-1-{4-[4-(pyridin-3-ylethynyl)-1,3-thiazol-2-yl]piperidin-1-yl}ethanone] displayed a chromatographic logP in “log P (pH2.3)” (setting [1]) of 2.68. The pest or weed control at 500 ppm in the data set on Phytophthora infestans was ≥ 70%. Moreover, the pest or weed control at 100 ppm with Plasmopara viticola is ≥ 70%.

For `Cc1cc(C(F)(F)F)nn1CC(=O)N1CCC(c2nc(C#C[Si](C)(C)C)cs2)CC1` [Example I-98, 2-[5-Methyl-3-(trifluoromethyl)-1H-pyrazol-1-yl]-1-(4-{4-[(trimethylsilyl)ethynyl]-1,3-thiazol-2-yl}piperidin-1-yl)ethanone], in “log P (pH2.3)” (setting [1]), the chromatographic logP was determined as 4.28. For the same compound, the pest or weed control at 500 ppm in the data set on Phytophthora infestans was ≥ 70%. For the same compound, in the data set with Plasmopara viticola, the pest or weed control at 100 ppm was ≥ 70%.

Turning to `Brc1sc(C2CCNCC2)nc1CCc1ccccc1` [II-3, 4-[5-Bromo-4-(2-phenylethyl)-1,3-thiazol-2-yl]piperidine], the log p in “log P (pH2.3)” (pH 2.3, pH2.3, read-out: log P) came to 1.72.

As for `Cc1cc(C(F)(F)F)nn1CC(=O)N1CCC(c2nc(CCCC(C)c3ccccc3)cs2)CC1` (centres unmarked) [Example I-80, 2-[5-Methyl-3-(trifluoromethyl)-1H-pyrazol-1-yl]-1-{4-[4-(4-phenylpentyl)-1,3-thiazol-2-yl]piperidin-1-yl}ethanone], the chromatographic logP in “log P (pH2.3)” (setting [1]) came to 4.77. Besides, the pest or weed control at 500 ppm in the data set on Phytophthora infestans was ≥ 70%. The pest or weed control at 100 ppm in the data set on Plasmopara viticola is ≥ 70%.

As for `COc1ccc(OC)c(C#Cc2csc(C3CCN(C(=O)Cn4nc(C(F)(F)F)cc4C)CC3)n2)c1` [Example I-106], the log p in the data set “log P (pH2.3)” (setting [1]) was 3.65^[b].

With `O=C(Cn1ccc(C(F)(F)F)n1)N1CCC(c2nc(/C=C\c3cccc(C(F)(F)F)c3)cs2)CC1` [Example I-16], the log p in the data set “log P (pH2.3)” (setting [1]) is 4.3^[b].

As for `Cc1cc(C)n(CC(=O)N2CCC(c3nc(CCc4cccc5ccccc45)cs3)CC2)n1` [Example I-79], in the data set “log P (pH2.3)” (setting [2]), the log p was 3.39^[c].

Regarding `Cc1cc(C)n(CC(=O)N2CCC(c3nc(CCc4ccccc4)cs3)CC2)n1` [Example I-54], in “log P (pH2.3)” (setting [3]), the log p is 2.86^[a].

For the compound `Cc1cccnc1C#Cc1csc(C2CCN(C(=O)Cn3nc(C(F)(F)F)cc3C(F)(F)F)CC2)n1` [Example I-216], in the data set “log P (pH2.3)” (setting [4]), the log p is 3.37^[b].

Take `Cc1cc(C(F)(F)F)nn1CC(=O)N1CCC(c2nc(C#Cc3c(F)cccc3F)cs2)CC1` [Example I-208]: the log p in the data set “log P (pH2.3)” (setting [4]) is 3.83^[b]; in “log P (pH2.3)” (setting [5]), 3.86^[c];.

For `Cc1ccccc1C#Cc1csc(C2CCN(C(=O)Cn3nc(C(F)(F)F)cc3C)CC2)n1` [Example I-206], the log p is 4.15^[b] in “log P (pH2.3)” (setting [4]) and 4.15^[c]; in “log P (pH2.3)” (setting [5]).

As for `Cc1cc(C(F)(F)F)nn1CC(=O)N1CCC(c2nc(CCc3ccccc3)cs2)CC1` [Example I-53, 2-[5-Methyl-3-(trifluoromethyl)-1H-pyrazol-1-yl]-1-{4-[4-(2-phenylethyl)-1,3-thiazol-2-yl]piperidin-1-yl}ethanone], the chromatographic logP in the data set “log P (pH2.3)” (setting [3]) was 3.79. Also, the pest or weed control at 500 ppm in the data set on Phytophthora infestans was ≥ 70%. The pest or weed control at 100 ppm with Plasmopara viticola was ≥ 70%.

Take `O=C(Cn1nc(C(F)(F)F)cc1C(F)(F)F)N1CCC(c2nc(C#Cc3ccccc3Br)cs2)CC1` [Example I-213]: in the data set “log P (pH2.3)” (setting [4]), the log p is 4.74^[b].

In the data set “log P (pH2.3)” (setting [1]), `Cc1cc(C(F)(F)F)nn1CC(=O)N1CCC(c2nc(/C=C\CC(C)c3ccccc3)cs2)CC1` (centres unmarked) [Example I-3, 2-[5-Methyl-3-(trifluoromethyl)-1H-pyrazol-1-yl]-1-(4-{4-[(1Z)-4-phenylpent-1-en-1-yl]-1,3-thiazol-2-yl}piperidin-1-yl)ethanone] gave a chromatographic logP of 4.84. Further, the pest or weed control at 500 ppm in the data set with Phytophthora infestans is ≥ 70%.

Take `Cc1cc(C(F)(F)F)nn1CC(=O)N1CCC(c2nc(C#Cc3ccc(Cl)cc3Cl)cs2)CC1` [Example I-105]: the log p in the data set “log P (pH2.3)” (setting [1]) was 4.72^[b].

As to `Cc1noc(C)c1C#Cc1csc(C2CCN(C(=O)Cn3nc(C(F)F)cc3C(F)F)CC2)n1` [Example I-223], in the data set “log P (pH2.3)” (setting [4]), the log p is 3.09^[b].

As to `C#Cc1csc(C2CCN(C(=O)Cc3cc(Cl)ccc3Cl)CC2)n1` [Example I-125], the log p in the data set “log P (pH2.3)” (setting [1]) is 3.08^[b].

Compound `O=C(Cc1nc2ccccc2s1)N1CCC(c2nc(CCc3ccccc3)cs2)CC1` [Example I-71, 2-(1,3-Benzothiazol-2-yl)-1-{4-[4-(2-phenylethyl)-1,3-thiazol-2-yl]piperidin-1-yl}ethanone] had a chromatographic logP in the data set “log P (pH2.3)” (setting [1]) of 3.68.

Turning to `O=C(Cn1cc2ccccc2n1)N1CCC(c2nc(CCc3ccccc3)cs2)CC1` [Example I-70, 2-(2H-Indazol-2-yl)-1-{4-[4-(2-phenylethyl)-1,3-thiazol-2-yl]piperidin-1-yl}ethanone], the chromatographic logP in “log P (pH2.3)” (setting [1]) came out at 3.14.

`Cc1cc(C(F)(F)F)nn1CC(=O)N1CCC(c2nc(C#Cc3ccccc3Br)cs2)CC1` [Example I-207]: the log p in “log P (pH2.3)” (setting [4]) was 4.16^[b]; in “log P (pH2.3)” (setting [5]) it was 4.19^[c];.

As to `CCc1cc(C(F)(F)F)nn1CC(=O)N1CCC(c2nc(CCc3cccc4ccccc34)cs2)CC1` [Example I-108], in the data set “log P (pH2.3)” (setting [1]), the log p was 4.65^[b].

`O=C(c1cccc(C(F)(F)F)c1)N1CCC(c2nc(CCc3ccccc3)cs2)CC1` [Example I-62]: in “log P (pH2.3)” (setting [1]), the log p is 4.23^[b].

With `O=C(Cn1nc(C(F)F)cc1C(F)F)N1CCC(c2nc(C#Cc3cccc4ccccc34)cs2)CC1` [Example I-117], the log p in “log P (pH2.3)” (setting [1]) was 4.41^[b].

In the case of `Cc1cc(C(F)(F)F)nn1CC(=O)N1CCC(c2nc(CCC3CCCCC3)cs2)CC1` [Example I-132], in “log P (pH2.3)” (setting [1]), the log p is 5.01^[b].

`Cc1cc(C(F)F)n(CC(=O)N2CCC(c3nc(CCc4ccccc4)cs3)CC2)n1` [Example I-35]: the log p in “log P (pH2.3)” (setting [1]) was 3.37^[b].

Take `O=C(Cc1cc(Cl)ccc1Cl)N1CCC(c2nc(C#Cc3ccccc3Br)cs2)CC1` [Example I-225]: the log p in “log P (pH2.3)” (setting [4]) was 4.91^[b].

For the compound `Cc1c(Cl)c(C(F)(F)F)nn1CC(=O)N1CCC(c2nc(/C=C\c3ccc(Cl)cc3)cs2)CC1` [Example I-11], the log p in the data set “log P (pH2.3)” (setting [1]) was 4.92^[b].

`CC(C)(C)c1cc(C(F)(F)C(F)(F)F)nn1CC(=O)N1CCC(c2nc(C#Cc3cccc4ccccc34)cs2)CC1` [Example I-120]: the log p in the data set “log P (pH2.3)” (setting [1]) was 5.59^[b].
